According to publication PMC11503492, “Activity-Based DNA-Encoded Library Screening for Selective Inhibitors of Eukaryotic Translation” (ACS Central Science, 2024):

What was measured:
[1] = system: PCSK9-FS[1:33]-GFP translation; assay: WG IVTT microplate activity assay, PCSK9-FS[1:33]-GFP frameshift counter template; assay type: biochemical, wheat germ; settings: for IC50: PCSK9-FS[1:33]-GFP template, triplicate, undetectable IC50 marked >300; for activity on PCSK9-FS[1:33]-GFP translation (in words): frameshift control
Excerpt: A commercially available wheat germ lysate (WG) IVTT system was employed to assay translation inhibition. Translation activity was detected via a GFP reporter, and the assay was miniaturized to picoliter-scale microfluidic droplets (Figure 1A,B). […] PCSK9 and RPL27 were truncated to the first 33 and 32 amino acids, respectively (PCSK9[1:33] and RPL27[1:32]). The sequences contain distinct PF846 stall sites and were both fused to a GFP reporter. The GFP reporter and a frameshift mutant of PCSK9[1:33] (PCSK9-FS[1:33]), which mutates the nascent chain sequence while maintaining a nearly identical mRNA sequence, were included as negative controls.[13] […] Sequence sensitivity was further confirmed by an N-terminal deletion series of PCSK9[1:33]-GFP; deletion of N-terminal residues increasingly ablated PCSK9[1:33]-GFP translation sensitivity to PF846 (Figure 1D). The WG IVTT assay was miniaturized using a previously described microfluidic circuit modified for longer incubation times (Figure S1)[27] using PF846 as a positive control compound, and assay statistical quality was calculated (Z′=0.7) (Figure 1E). To confirm detection of translation inhibition from library beads, hygromycin B, a nonselective aminoglycoside translation inhibitor, was coupled to beads displaying a photocleavable linker (PC-HygB). UV irradiation releases hygromycin from the bead, allowing it to interact with the WG IVTT assay in the droplet. PC-HygB bead photocleavage supernatant inhibited PCSK9[1:33]-GFP translation both in a microplate assay and in microfluidic droplets (Figure 1F,G, S2). Assay statistical quality using PC-HygB positive control beads was similarly calculated (Z′ = 0.75, Figure 1H). […]
436 Microplate IVTT Assays
437 Wheat germ lysate IVTT plate assays were prepared as 5 µL reactions. Wheat germ lysate
438 (3 µL) was added to test compound or vehicle control (1 µL) in a 384-well black microplate
439 and the reaction was incubated (10 min, RT). Template (1 µL) was added and reaction
440 progress was immediately monitored (λex = 480 nm, λem = 530 nm, 27 °C, 2 h). Rela-
441 tive activity was calculated using the slope of fluorescence increase over time (at 15–30
442 min post reaction initiation) for compound samples relative to that of the DMSO vehicle
443 control. All microplate experiments contained 25 ng/µL plasmid, except for assays with
445 respectively. HeLa lysate IVTT plate assays were prepared as 5.5 µL reactions. […]

[2] = system: PCSK9-FS[1:33]-GFP translation; assay: Microfluidic activity-based DEL counter screen in WG IVTT droplets, PCSK9-FS[1:33]-GFP, hit k class by sequencing; assay type: biochemical, wheat germ; settings: number of times hit structure observed on distinct beads, summed across PCSK9-FS[1:33]-GFP screens; *** p < 0.001, NS not significant
Description: The validated PF846-inspired library was screened to discover novel translation inhibitors. DEL beads were encapsulated in microfluidic droplets of WG IVTT and irradiated with UV in flow to liberate DEL members into the droplets. The photodosed droplets were incubated and sorted based on fluorescence.[25] PCSK9[1:33]-GFP was chosen as a proof-of-concept target, and PCSK9-FS[1:33]-GFP was used as a counter screen target to identify nonselective compounds. PC-HygB were mixed with DEL beads and screened in the microfluidic device for inhibitors of translation. […] Droplet generation, bead introduction, and library and control bead hit rate were uniform during the screen (Figure 3, bottom).
Hit collection DNA tags from the PCSK9[1:33]-GFP and PCSK9-FS[1:33]-GFP screens were sequenced to deduce the structures of molecules that inhibited PCSK9[1:33]- or PCSK9-FS[1:33]-GFP translation. Hit structure k class, the number of times a given hit structure is observed on distinct beads,[31] was summed across screens and visualized as a heat map (Figure 4A). […] The combined hit sets for the two templates contained 121 unique hits with k ≥ 17 across the two screening campaigns. The most frequently observed cycle 1 starter BBs were 1 and 2, which share an 8-methylisoquinoline moiety, but differ in the vector for cycle 2 carboxylic acid connection, and 3, which contains an N-methylazaindole moiety. The most frequently identified cycle 2 tails included carboxylic acids 4–7. […] Substituted pyrazole 6 and pyridyl-benzimidazole 7 also appeared frequently with the aforementioned starters. There were 5 hits that appeared with high k class in both PCSK9[1:33]-GFP and PCSK9[1:33]-FS-GFP screening campaigns.
319 the droplet experiment to homogenize the bead suspension. Syringes were connected to
320 fluidic inputs with microbore Tygon tubing (0.01” x 0.03” IC × OD). Droplet generation oil
321 (OIL1) was 1% picosurf in HFE. Spacing (OIL2) and pinning (OIL3) oils were neat HFE.
322 Assay reagents were driven by displacement syringe pumps (Legato 100, KD Scientific,
323 Holliston, MA) through the circuit. OIL2 and OIL3 were initially flowed (22 µL/min and
324 12 µL/min, respectively) and hit and waste shunt tubing were clamped to backfill the
325 circuit. Once the incubator was filled with oil, the hit and waste tubing were unclamped
326 and back shunts were clamped. AQ1, AQ2, and OIL1 flows were initiated (960 nL/min,
327 640 nL/min, and 1200 nL/min, respectively) and held constant during the screen. Once
328 droplet generation equilibrated (∼10 min), the main shunt was clamped and droplets
329 started to fill the incubator. When droplets filled the incubator and entered the sorting
330 region, data acquisition and screening was initiated.
331 The custom confocal LIF detection setup and LabView code were previously described.S3
332 Briefly, photon counting PMTs (H7828, Hamamatsu, Middlesex, NJ) were used to detect
333 droplet fluorescence emission using a custom two-channel (520 and 570 nm) confocal mi-
334 croscope with laser excitation (488 nm, 20 mW, OBIS-488 20LS, Coherent Inc., Santa Clara,
335 CA). A data acquisition board (DAQ, NI, USB-6341, National Instruments) was used to
336 digitize PMT signal, which was binned into counts, and in-house LabView code was used
337 to control acquisition and execute droplet sorting decisions. Signal was smoothed in real-
338 time using median-filter smoothing (width = 3). Droplets were identified by the 570 nm
339 channel signal and the maximum signal in the 520 nm channel (max = countsn-1 when
340 countsn <countsn-1) was set as the droplet peak value. A roaming sort threshold was
342 the 520 nm channel. The threshold was calculated as µ - 5σ, where µ andσ were the mean
343 and standard deviation of the previous 300 droplets’ fluorescence values, respectively. Hit
344 droplets were not included in the calculation of droplet mean and standard deviation. A […]

[3] = system: PCSK9[1:33]-GFP translation from mRNA; assay: IVTT activity assay of PCSK9[1:33]-GFP initiated with RNA template; assay type: biochemical
Description: Figure S10. Activity of compounds 8 and 9 on transcription. (A) Screening hits 8 and 9 were analyzed in dose-response IVTT activity assays of PCSK9[1:33]-GFP initiated with DNA (black) and RNA (gray) template. (B) Products of PCSK9[1:33]-GFP T7 transcription reactions incubated with DMSO, screening hits 8 and 9, or PF846 were visualized on a 1.5% agarose gel
(1 picture or pasted object on this page, not shown here)

| Structure (SMILES) | IC50 [1] | activity on PCSK9-FS[1:33]-GFP translation (in words) [1] | k class PCSK9-FS [2] | activity when translation initiated from mRNA rather than plasmid DNA (in words) [3] |
| --- | --- | --- | --- | --- |
| Cc1cccc2ccnc(N(C(=O)[C@H]3CCCN(C(=O)c4cccc5c(C#N)c[nH]c45)C3)[C@@H]3CCCNC3)c12 [Compound 8] | > 300 µM | inactive | 0 | active |
| Cc1cccc2ccnc(N(C(=O)C3CCN(C(=O)c4cccc5c(C#N)c[nH]c45)CC3)[C@@H]3CCCNC3)c12 [Compound 9] | 24 ± 0.4 µM | similarly active on both templates | 18 | inactive |
